From ChEMBL document CHEMBL3886312, “Sepiapterin reductase inhibitors for the treatment of pain” (2015) come the findings set out here.

SMILES strings stand for the structures.

Experiment [1] addresses T1, Sepiapterin reductase (Homo sapiens, UniProt P35270). Description: The LC/MS assay monitors the product formation (L-biopterin) and the chromogenic assay measures OD at 420 nm.N-methoxyacetyl serotonin was used as a reference compound (positive control). […] (2) Add 40 uL enzyme/assay buffer.
Experiment [2] concerns the target T1, Sepiapterin reductase. Description: LC/MS assay: To screen for SPR inhibition, a biochemical assay based on LC/MS (and chromogenic) read-out has been developed. The LC/MS assay monitors the product formation (L-biopterin) and the chromogenic assay measures OD at 420 nm.N-methoxyacetyl serotonin was used as a reference compound (positive control). […] (2) Add 40 uL enzyme/assay buffer.

T1 sequence (P35270 whole entry): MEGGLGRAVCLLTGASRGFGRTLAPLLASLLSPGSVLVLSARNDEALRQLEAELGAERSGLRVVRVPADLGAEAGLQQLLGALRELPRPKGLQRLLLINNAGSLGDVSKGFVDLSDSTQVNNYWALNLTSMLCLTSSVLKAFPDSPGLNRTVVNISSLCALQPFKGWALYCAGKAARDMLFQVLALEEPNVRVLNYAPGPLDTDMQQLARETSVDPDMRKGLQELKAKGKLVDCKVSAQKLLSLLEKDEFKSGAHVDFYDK

Consider `COCC(=O)NCCc1c[nH]c2ccc(NS(C)(=O)=O)cc12`, for which the values for the concentration for half-maximal inhibition (IC50) at Sepiapterin reductase [1] and on Sepiapterin reductase [2] were 1100 nM and 1000 nM, respectively.
